Tests used:
[1] = target: T1, Muscarinic acetylcholine receptor M4 (Homo sapiens, UniProt P08173); assay type: cell membranes, CHO-K1, Membrane; further: in other assays of this panel Not Active means under 50% inhibition at 10 µM
T1 sequence (P08173 whole entry): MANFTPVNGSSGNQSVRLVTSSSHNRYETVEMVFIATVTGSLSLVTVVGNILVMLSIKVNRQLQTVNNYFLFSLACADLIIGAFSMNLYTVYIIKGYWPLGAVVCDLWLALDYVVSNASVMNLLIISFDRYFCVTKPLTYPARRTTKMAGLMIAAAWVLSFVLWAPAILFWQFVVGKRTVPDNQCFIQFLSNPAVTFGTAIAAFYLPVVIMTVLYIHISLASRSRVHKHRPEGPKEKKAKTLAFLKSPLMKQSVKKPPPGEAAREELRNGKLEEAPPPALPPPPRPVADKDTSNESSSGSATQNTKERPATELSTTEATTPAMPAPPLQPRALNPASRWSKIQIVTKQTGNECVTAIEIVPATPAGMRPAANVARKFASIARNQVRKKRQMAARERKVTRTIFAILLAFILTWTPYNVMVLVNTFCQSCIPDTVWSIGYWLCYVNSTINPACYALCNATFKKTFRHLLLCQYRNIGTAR

[2] = DRUGMATRIX: Phosphodiesterase PDE4 enzyme inhibition (substrate: [3H]cAMP + cAMP); settings: u-937; Not Active = under 50% inhibition at 10 µM
[3] = target: Prostaglandin G/H synthase 1 (Homo sapiens, UniProt P23219); assay: biochemical; assay type: tissue-based, Platelet; settings: platelet;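 further: inhibition of COX-1 enzyme activity, with arachidonic acid supplied as substrate; in other assays of this panel Not Active means under 50% inhibition at 10 µM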
Chain of Prostaglandin G/H synthase 1 (P23219 whole entry): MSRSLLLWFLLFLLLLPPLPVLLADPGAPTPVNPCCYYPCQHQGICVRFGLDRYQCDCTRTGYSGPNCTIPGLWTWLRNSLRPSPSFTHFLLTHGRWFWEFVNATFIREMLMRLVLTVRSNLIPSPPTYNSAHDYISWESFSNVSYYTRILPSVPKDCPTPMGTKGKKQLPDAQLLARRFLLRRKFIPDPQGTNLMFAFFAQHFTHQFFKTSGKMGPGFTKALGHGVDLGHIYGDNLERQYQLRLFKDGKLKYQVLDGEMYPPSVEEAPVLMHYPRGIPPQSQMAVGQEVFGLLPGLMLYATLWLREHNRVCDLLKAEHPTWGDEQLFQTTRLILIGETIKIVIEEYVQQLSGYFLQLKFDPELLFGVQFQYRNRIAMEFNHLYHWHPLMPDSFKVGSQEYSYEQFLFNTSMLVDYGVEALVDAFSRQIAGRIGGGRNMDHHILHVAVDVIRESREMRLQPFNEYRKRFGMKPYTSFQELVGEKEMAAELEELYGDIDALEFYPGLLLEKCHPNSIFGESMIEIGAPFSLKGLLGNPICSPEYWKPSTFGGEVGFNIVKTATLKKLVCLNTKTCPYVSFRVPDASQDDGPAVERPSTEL

[4] = DRUGMATRIX: Potassium Channel [KATP] radioligand binding (ligand: [3H] Glyburide); assay type: cell membranes, Membrane; settings: hit-t15; Not Active = under 50% inhibition at 10 µM
[5] = target: T2, Leukotriene C4 synthase (Cavia porcellus, UniProt A6XA80); assay type: tissue-based, Lung;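 further: enzyme inhibition assay of leukotriene C4 synthase, using LTA4 as the substrate; in other assays of this panel Not Active means under 50% inhibition at 10 µM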
T2 sequence (A6XA80 whole entry): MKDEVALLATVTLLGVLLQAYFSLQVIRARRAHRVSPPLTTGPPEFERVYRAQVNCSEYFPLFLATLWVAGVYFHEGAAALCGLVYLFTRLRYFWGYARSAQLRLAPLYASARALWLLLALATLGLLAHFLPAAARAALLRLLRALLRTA

[6] = target: Mitogen-activated protein kinase 14 (Homo sapiens, UniProt Q16539); design: species or system Escherichia coli;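 further: inhibition of p38alpha enzyme activity in a biochemical kinase assay, with myelin basic protein serving as substrate; in other assays of this panel Not Active means under 50% inhibition at 10 µM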
Chain of Mitogen-activated protein kinase 14 (Q16539 whole entry): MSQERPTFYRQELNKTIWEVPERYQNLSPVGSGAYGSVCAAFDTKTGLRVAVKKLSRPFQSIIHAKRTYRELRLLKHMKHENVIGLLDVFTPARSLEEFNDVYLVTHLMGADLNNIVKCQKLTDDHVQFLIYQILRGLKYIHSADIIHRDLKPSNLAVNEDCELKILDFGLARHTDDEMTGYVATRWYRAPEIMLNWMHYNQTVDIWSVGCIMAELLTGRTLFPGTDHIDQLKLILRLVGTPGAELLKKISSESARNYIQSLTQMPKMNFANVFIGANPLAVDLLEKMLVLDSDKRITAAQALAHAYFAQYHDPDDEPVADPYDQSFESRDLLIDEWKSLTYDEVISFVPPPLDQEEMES

Row | Structure (SMILES) | IC50 ([1]; cho-k1) | IC50 [2] | Ki [2] | IC50 [3] | IC50 [4] | Ki [4] | IC50 [5] | IC50 [6] | IC50 ([1]; read-out: IC50) [nM] | Ki ([1]; read-out: Ki) [nM]
1 | COc1cc(N)nc2[nH]c(-c3ccc(F)cc3)c(-c3ccncc3)c12 | Not Active | Not Active | Not Active | Not Active | Not Active | Not Active | Not Active | – | – | –
2 | CNS(=O)(=O)Cc1ccc2[nH]cc(CCN(C)C)c2c1 | Not Active | Not Active | Not Active | Not Active | Not Active | Not Active | Not Active | Not Active | – | –
3 | CCCc1nn(C)c2c(=O)[nH]c(-c3cc(S(=O)(=O)N4CCN(C)CC4)ccc3OCC)nc12 | Not Active | Not Active | Not Active | Not Active | Not Active | Not Active | Not Active | Not Active | – | –
4 | COc1ccc(/C=C/C(=O)Nc2ccccc2C(=O)O)cc1OC | Not Active | Not Active | Not Active | Not Active | Not Active | Not Active | Not Active | Not Active | – | –
5 | CCOC(N)=O | Not Active | Not Active | Not Active | Not Active | Not Active | Not Active | Not Active | Not Active | – | –
6 | CC(=O)Nc1nnc(S(N)(=O)=O)s1 [ACETAZOLAMIDE] | Not Active | – | – | Not Active | – | – | Not Active | Not Active | – | –
7 | O=c1[nH]c2ccccc2n1CCCN1CCC(n2c(=O)[nH]c3cc(Cl)ccc32)CC1 [DOMPERIDONE] | Not Active | – | – | Not Active | – | – | Not Active | Not Active | – | –
8 | CC1=C(CC(=O)O)c2cc(F)ccc2/C1=C\c1ccc(S(C)(=O)=O)cc1 [EXISULIND] | Not Active | Not Active | Not Active | Not Active | Not Active | Not Active | Not Active | Not Active | – | –
9 | CC(C)OC(=O)C(C)(C)Oc1ccc(C(=O)c2ccc(Cl)cc2)cc1 [FENOFIBRATE] | Not Active | – | – | Not Active | – | – | Not Active | Not Active | – | –
10 | OCCN1CCN(CCCN2c3ccccc3Sc3ccc(C(F)(F)F)cc32)CC1 [FLUPHENAZINE] | – | – | – | Not Active | – | – | Not Active | Not Active | 3470 | 484
11 | CN1C2CCCC1CC(NC(=O)c1nn(C)c3ccccc13)C2 (centres undefined) [GRANISETRON] | Not Active | – | – | Not Active | – | – | Not Active | Not Active | – | –
12 | Nc1nc2c(c(=O)[nH]1)N(C=O)C(CNc1ccc(C(=O)N[C@@H](CCC(=O)O)C(=O)O)cc1)CN2 (some centres undefined) [LEUCOVORIN] | Not Active | Not Active | Not Active | Not Active | Not Active | Not Active | Not Active | Not Active | – | –
13 | C[C@@H](O)[C@H]1C(=O)N2C(C(=O)O)=C(S[C@@H]3CN[C@H](C(=O)N(C)C)C3)[C@H](C)[C@H]12 [MEROPENEM] | Not Active | Not Active | Not Active | Not Active | Not Active | Not Active | Not Active | Not Active | – | –
14 | CC[C@@H](CO)NC(=O)[C@@H]1C=C2c3cccc4c3c(cn4C)C[C@H]2N(C)C1 [METHYSERGIDE] | Not Active | – | – | Not Active | – | – | Not Active | Not Active | – | –
15 | CCN(CC)CC#CCOC(=O)C(O)(c1ccccc1)C1CCCCC1 (centres undefined) [OXYBUTYNIN] | – | – | – | Not Active | – | – | Not Active | Not Active | – | –
16 | O=P(O)(O)C(O)(Cc1cccnc1)P(=O)(O)O [RISEDRONIC ACID] | Not Active | Not Active | Not Active | Not Active | Not Active | Not Active | Not Active | Not Active | – | –
17 | CN(CCOc1ccc(CC2SC(=O)NC2=O)cc1)c1ccccn1 (centres undefined) [ROSIGLITAZONE] | Not Active | Not Active | Not Active | Not Active | Not Active | Not Active | Not Active | Not Active | – | –
18 | C=C(C)[C@H]1Cc2c(ccc3c2O[C@@H]2COc4cc(OC)c(OC)cc4[C@@H]2C3=O)O1 [ROTENONE] | Not Active | Not Active | Not Active | Not Active | Not Active | Not Active | Not Active | Not Active | – | –
19 | C#CCN(C)[C@H](C)Cc1ccccc1 [SELEGILINE] | Not Active | Not Active | Not Active | Not Active | Not Active | Not Active | Not Active | Not Active | – | –
20 | CO[C@H]1C[C@@H]2CC[C@@H](C)[C@@](O)(O2)C(=O)C(=O)N2CCCC[C@H]2C(=O)O[C@H]([C@H](C)C[C@@H]2CC[C@@H](O)[C@H](OC)C2)CC(=O)[C@H](C)/C=C(\C)[C@@H](O)[C@@H](OC)C(=O)[C@H](C)C[C@H](C)/C=C/C=C/C=C/1C [SIROLIMUS] | Not Active | Not Active | Not Active | Not Active | Not Active | Not Active | Not Active | Not Active | – | –
21 | CN[C@@H]1[C@H](O)[C@H](NC)[C@H]2O[C@@]3(O)C(=O)C[C@@H](C)O[C@H]3O[C@@H]2[C@H]1O [SPECTINOMYCIN] | Not Active | Not Active | Not Active | Not Active | Not Active | Not Active | Not Active | Not Active | – | –
22 | Nc1ccc(S(=O)(=O)Nc2ncccn2)cc1 [SULFADIAZINE] | Not Active | Not Active | Not Active | Not Active | Not Active | Not Active | Not Active | Not Active | – | –
23 | COc1ncnc(NS(=O)(=O)c2ccc(N)cc2)c1OC [SULFADOXINE] | Not Active | Not Active | Not Active | Not Active | Not Active | Not Active | Not Active | Not Active | – | –
24 | Nc1ccc(S(=O)(=O)Nc2nccs2)cc1 [SULFATHIAZOLE] | Not Active | Not Active | Not Active | Not Active | Not Active | Not Active | Not Active | Not Active | – | –
25 | C[C@]12CC[C@H]3[C@@H](CCC4=CC(=O)CC[C@@]43C)[C@@H]1CC[C@@H]2O [TESTOSTERONE] | Not Active | Not Active | Not Active | Not Active | – | – | Not Active | Not Active | – | –
26 | CC(C)(C)NC[C@H](O)COc1nsnc1N1CCOCC1 [TIMOLOL] | Not Active | Not Active | Not Active | Not Active | Not Active | Not Active | Not Active | Not Active | – | –
27 | CCS(=O)(=O)CCn1c([N+](=O)[O-])cnc1C [TINIDAZOLE] | Not Active | Not Active | Not Active | Not Active | Not Active | Not Active | Not Active | Not Active | – | –
28 | O=c1n(CCCN2CCN(c3cccc(Cl)c3)CC2)nc2ccccn12 [TRAZODONE] | Not Active | – | – | Not Active | – | – | Not Active | Not Active | – | –

— ChEMBL document CHEMBL1909046, “DrugMatrix in vitro pharmacology data”
